Experimental data: patent publication US9096524B2, “Anthelmintic agents and their use” (Intervet International B.V., priority 2009, dated 2015)
Where two headings read alike, the source gives them in different places.

Tested on: Haemonchus contortus
Test: Efficacy against Haemonchus contortus in jirds
Type: in vivo, jirds (Meriones unguiculatus)
Settings: 72 h, read-out: % Reduction in H.
Protocol: Anthelmintic effects of compounds of this invention were tested in vivo using Haemonchus contuortus in jirds (Meriones unguiculatus). The jirds were orally infected with approximately 750-3,000 third-stage larvae of Haemonchus contortus. Ten days after infection, the jirds in the treatment groups were treated once orally or subcutaneously at a dose of 2, 10, and/or 50 mg per kg bodyweight. Three days after treatment, the jirds were necropsied, and the larvae burden in the stomach is determined. The efficacy is defined as the reduction of the mean larvae count in the jirds of the treatment groups in comparison to the infected jirds in the untreated negative control group.

[1] = jirds, 50 mg/kg, oral, single treatment, larvae burden in stomach 3 days after treatment
[2] = sc, jirds, 50 mg/kg, subcutaneous, single treatment, larvae burden in stomach 3 days after treatment

Row | Compound | inhibition in vivo at 50 mg/kg [1] [%] | inhibition in vivo at 50 mg/kg [2] [%] | further results
1 | O=C(CCN1CCN(c2ccc(OCc3ccccc3)cc2)CC1)N1CCC(Oc2ccc([N+](=O)[O-])c(C(F)(F)F)c2)CC1 [Example 58, 3-[4-(4-benzyloxy-phenyl)-piperazin-1-yl]-1-[4-(4-nitro-3-trifluoromethyl-phenoxy)-piperidin-1-yl]-propan-1-one] |  |  | inhibition in vivo at 50 mg/kg (po): 0%; inhibition in vivo at 50 mg/kg (sc): 59%
2 | O=C(CCCN1CCN(c2ccc(C(F)(F)F)cc2)CC1)N1CCC(Nc2ccc([N+](=O)[O-])c(C(F)(F)F)c2)CC1 [Example 89, 1-[4-(4-nitro-3-trifluoromethyl-phenylamino)-piperidin-1-yl]-4-[4-(4-trifluoromethyl-phenyl)-piperazin-1-yl]-butan-1-one] |  |  | inhibition in vivo at 10 mg/kg (po): 99%; inhibition in vivo at 10 mg/kg (sc): 98%
3 | CC(C)(C)c1ccc(N2CCN(CCCC(=O)N3CCC(Nc4ccc([N+](=O)[O-])c(C(F)(F)F)c4)CC3)CC2)cc1 [Example 90, 4-[4-(4-tert-butyl-phenyl)-piperazin-1-yl]-1-[4-(4-nitro-3-trifluoromethyl-phenylamino)-piperidin-1-yl]-butan-1-one] |  |  | inhibition in vivo at 10 mg/kg (po): 46%; inhibition in vivo at 10 mg/kg (sc): 42%
4 | CC(CN1CCN(c2ccc(C(F)(F)F)cc2)CC1)C(=O)N1CCC(Nc2ccc(C#N)c(C(F)(F)F)c2)CC1 (centres unmarked) [Example 92, 4-(1-{2-methyl-3-[4-(4-trifluoromethyl-phenyl)-piperazin-1-yl]-propionyl}-piperidin-4-ylamino)-2-trifluoromethyl-benzonitrile] | 100 | 91 | 
5 | N#Cc1ccc(NC2CCN(C(=O)CCCN3CCN(c4ccc(C(F)(F)F)cn4)CC3)CC2)cc1C(F)(F)F [Example 157, 2-trifluoromethyl-4-(1-{4-[4-(5-trifluoromethyl-pyridin-2-yl)-piperazin-1-yl]-butyryl}-piperidin-4-ylamino)-benzonitrile] |  |  | inhibition in vivo at 10 mg/kg (jirds, 10 mg/kg, oral, single treatment, larvae burden in stomach 3 days after treatment): 96%; inhibition in vivo at 10 mg/kg (sc, jirds, 10 mg/kg, subcutaneous, single treatment, larvae burden in stomach 3 days after treatment): 93%
6 | CCOc1cc(NC2CCN(C(=O)CCN3CCC(c4ccc(Cl)cc4)CC3)CC2)ccc1[N+](=O)[O-] [Example 414] | 0 | 98 | 
7 | CC(C)(C)c1ccc(N2CCC(OCC(=O)N3CCC(Nc4ccc([N+](=O)[O-])c(C(F)(F)F)c4)CC3)CC2)cc1 [Example 416] | 88 | 98 | 
8 | CCCc1ccc(C2CCN(CCC(=O)N3CCC(Oc4ccc([N+](=O)[O-])c(OCC(C)C)c4)CC3)CC2)cc1 [Example 532] | 90 | 99 | 
9 | CC(C)COc1cc(OC2CCN(C(=O)CCN3CCC(c4ccc(C(C)(C)C)cc4)CC3)CC2)ccc1[N+](=O)[O-] [Example 533] | 83 | 74 | 
10 | O=C(NCC1CCN(c2ccc(C(F)(F)F)cc2)CC1)N1CCC(Nc2ccc([N+](=O)[O-])c(C(F)(F)F)c2)CC1 [Example 539] | 82 | 73 | 
11 | CN(CC1CCN(c2ccccc2)CC1)C(=O)N1CCC(Nc2ccc([N+](=O)[O-])c(C(F)(F)F)c2)CC1 [Example 565] | 70 | 90 | 
12 | Cc1ccc(N2CCC(CN(C)C(=O)N3CCC(Nc4ccc([N+](=O)[O-])c(C(F)(F)F)c4)CC3)CC2)cc1 [Example 566] | 83 | 93 | 
13 | CC(CN1CCN(c2ccc(Cl)cc2)CC1)C(=O)N1CCC(Nc2ccc(C#N)c(C(F)(F)F)c2)CC1 (centres unmarked) [Example 581] |  |  | inhibition in vivo at 50 mg/kg (po): 68%; inhibition in vivo at 50 mg/kg (sc): 10%
